Earlier results as cited in article PMC3720659, “Integrated Analysis of Drug-Induced Gene Expression Profiles Predicts Novel hERG Inhibitors” (PLoS ONE, 2013).
Where two headings read alike, the source gives them in different places.

Tests used:
[1] = cited from earlier work
hERG current = conditions: cited from earlier work; for Annotation (hERG inhibition class, Active/Inactive by IC50): annotation of the drug, Cell Line (HL60, MCF7, PC3) is the cell line of the drug-induced expression profile, not of the hERG assay, ref hERGcentral
[2] = on LQT Drug List, the Cell Line (HL60, MCF7, PC3) names the expression profile
[3] = drug on LQT Drug List, the Cell Line (HL60, MCF7, PC3) is the cell line of the expression profile
[4] = hERG annotation of the drug, the Cell Line (HL60, MCF7, PC3) names the expression profile, not the hERG test
[5] = hERG inhibition annotation of the drug, the Cell Line (HL60, MCF7, PC3) is the cell line of the expression profile, not of the hERG test

## CN(C)CCC=C1c2ccccc2CCc2ccccc21 [amitriptyline]
[1]; [2]
  Annotation (LQT Drug): LQT Drug

## NC12CC3CC(CC(C3)C1)C2 [amantadine]
[1]; [2]
  Annotation (LQT Drug): LQT Drug

## CC(CCc1ccc(O)cc1)NCCc1ccc(O)c(O)c1 (stereo not shown) [dobutamine]
[1]; [2]
  Annotation (LQT Drug): LQT Drug

## COc1cc2nc(N(C)CCCNC(=O)C3CCCO3)nc(N)c2cc1OC (stereo not shown) [alfuzosin]
[1]; [2]
  Annotation (LQT Drug): LQT Drug

## CCN(CC)CCCC(C)Nc1ccnc2cc(Cl)ccc12 (stereo not shown) [chloroquine]
[1]; [2]
  Annotation (LQT Drug): LQT Drug

## CC1Cc2ccccc2N1NC(=O)c1ccc(Cl)c(S(N)(=O)=O)c1 (stereo not shown) [indapamide]
[1]; [3]
  Annotation (LQT Drug): LQT Drug

## CC(Cc1ccccc1)NCCC(c1ccccc1)c1ccccc1 (stereo not shown) [prenylamine]
[1]; [3]
  Annotation (LQT Drug): LQT Drug

## Cc1cccc(C)c1OCC(C)N (stereo not shown) [mexiletine]
[1]; [3]
  Annotation (LQT Drug): LQT Drug

## CNCCC=C1c2ccccc2CCc2ccccc21 [nortriptyline]
[1]; [3]
  Annotation (LQT Drug): LQT Drug

## CC(=O)N1CCN(c2ccc(OCC3COC(Cn4ccnc4)(c4ccc(Cl)cc4Cl)O3)cc2)CC1 (stereo not shown) [ketoconazole]
[1]; [3]
  Annotation (LQT Drug): LQT Drug

## Clc1ccc2c(c1)C(N1CCNCC1)=Nc1ccccc1O2 [Amoxapine, reference compound]
hERG current; inhibitor means 50% or more decrease of hERG current at 10 µM, acute recording
  hERG inhibition call in the high-throughput electrophysiology assay: negatives
[1]; [2]
  Annotation (LQT Drug): LQT Drug

## CNCCCC12CCC(c3ccccc31)c1ccccc12 [maprotiline]
[1]; [3]
  Annotation (LQT Drug): LQT Drug

## COC1=C2C[C@@H](C)C[C@H](OC)[C@H](O)[C@@H](C)/C=C(\C)[C@H](OC(N)=O)[C@@H](OC)/C=C\C=C(/C)C(=O)NC(=CC1=O)C2=O [geldanamycin]
[1]; [3]
  Annotation (LQT Drug): LQT Drug

## CNCCCN1c2ccccc2CCc2ccccc21 [desipramine]
[1]; [2]
  Annotation (LQT Drug): LQT Drug

## CC1COc2c(N3CCN(C)CC3)c(F)cc3c(=O)c(C(=O)O)cn1c23 (stereo not shown) [ofloxacin]
[1]; [3]
  Annotation (LQT Drug): LQT Drug

## OCCN1CCN(CCCN2c3ccccc3Sc3ccc(C(F)(F)F)cc32)CC1 [fluphenazine]
[1]; [3]
  Annotation (LQT Drug): LQT Drug

## CC(Cc1cccc(C(F)(F)F)c1)NCCOC(=O)c1ccccc1 (stereo not shown) [benfluorex]
hERG current; [4]
  Annotation (hERG Active / Inactive): Inactive

## NCCc1cc[nH]n1 [betazole]
hERG current; [4]
  Annotation (hERG Active / Inactive): Inactive

## NS(=O)(=O)c1cc(C(=O)O)cc(N2CCCC2)c1Oc1ccccc1 [piretanide]
hERG current; [5]
  Annotation (hERG Active / Inactive): Inactive

## CC(=O)O[C@H]1C[C@@]2(C)[C@@H](C[C@@H](O)[C@H]3[C@@]4(C)CC[C@@H](O)[C@@H](C)[C@@H]4CC[C@@]32C)/C1=C(\CCC=C(C)C)C(=O)O [fusidic acid]
hERG current; [5]
  Annotation (hERG Active / Inactive): Inactive

## CCC(=O)OC1(C(=O)CCl)[C@@H](C)C[C@H]2[C@@H]3CCC4=CC(=O)C=C[C@]4(C)[C@@]3(F)[C@@H](O)C[C@@]21C (stereo partly shown) [clobetasol]
hERG current; [4]
  Annotation (hERG Active / Inactive): Inactive

## [H]/N=C(\N/C(=N/[H])NCCCCCCNC(=N)NC(=N)Nc1ccc(Cl)cc1)Nc1ccc(Cl)cc1 [chlorhexidine]
hERG current; [4]
  Annotation (hERG Active / Inactive): Inactive

## CN/C(=N/CCSCc1nc[nH]c1C)NC#N [cimetidine]
hERG current
  Annotation (hERG Active / Inactive): Inactive

## Clc1ccc(CCC(Cn2ccnc2)Sc2c(Cl)cccc2Cl)cc1 (stereo not shown) [butoconazole]
hERG current; [4]
  Annotation (hERG Active / Inactive): Inactive

## N=C(N)NC(=O)Cc1c(Cl)cccc1Cl [guanfacine]
hERG current; [5]
  Annotation (hERG Active / Inactive): Inactive

## C[C@H](CS)C(=O)N1CCC[C@H]1C(=O)O [captopril]
hERG current; [4]
  Annotation (hERG Active / Inactive): Inactive

## NC(=NCc1ccccc1)NC(=O)c1nc(Cl)c(N)nc1N [benzamil]
hERG current; [4]
  Annotation (hERG Active / Inactive): Active

## CCN1C(=O)NC(c2ccccc2)C1=O (stereo not shown) [ethotoin]
hERG current; [4]
  Annotation (hERG Active / Inactive): Inactive

## Nc1ccc(S(=O)(=O)Nc2ccccn2)cc1 [sulfapyridine]
hERG current
  Annotation (hERG inhibition class, Active/Inactive by IC50): Inactive

## CCN(CC)CCNC(=O)c1cc(Cl)c(N)cc1OC [metoclopramide]
hERG current; [5]
  Annotation (hERG Active / Inactive): Inactive

## NC(=O)c1ncn([C@@H]2O[C@H](CO)[C@@H](O)[C@H]2O)n1 [ribavirin]
hERG current
  Annotation (hERG inhibition class, Active/Inactive by IC50): Inactive

## CC(=O)Oc1ccccc1C(=O)Oc1ccccc1C(=O)O [acetylsalicylsalicylic acid]
hERG current; [4]
  Annotation (hERG Active / Inactive): Inactive

## c1coc(CNc2ncnc3[nH]cnc23)c1 [kinetin]
hERG current; [5]
  Annotation (hERG Active / Inactive): Inactive

## Cc1c(Cl)cccc1Nc1ccccc1C(=O)O [tolfenamic acid]
hERG current
  Annotation (hERG inhibition class, Active/Inactive by IC50): Inactive

## O=C(NCNC(=O)NC1C(=O)NC(=O)N1CO)NC1C(=O)NC(=O)N1CO (stereo not shown) [imidurea]
hERG current; [5]
  Annotation (hERG Active / Inactive): Inactive

## estrone
hERG current; [4]
  Annotation (hERG Active / Inactive): Inactive

## O=C1CC[C@@]2(O)[C@H]3Cc4ccc(O)c5c4[C@@]2(CCN3CC2CC2)[C@H]1O5 [naltrexone]
hERG current; [5]
  Annotation (hERG Active / Inactive): Inactive

## C[C@]12C[C@H](O)[C@H]3[C@@H](CCC4=CC(=O)CC[C@@]43C)[C@@H]1CC[C@@H]2C(=O)CO [corticosterone]
hERG current; [4]
  Annotation (hERG Active / Inactive): Inactive

## Oc1c(I)cc(Cl)c2cccnc12 [clioquinol]
hERG current; [4]
  Annotation (hERG Active / Inactive): Inactive

## CC[C@H]1CN2CC[C@H]1C[C@H]2[C@H](O)c1ccnc2ccc(OC)cc12 [hydroquinine]
hERG current; [5]
  Annotation (hERG Active / Inactive): Inactive

## COc1ccc(-c2ccc(N)[n+](CCCC(=O)O)n2)cc1 [SR-95531]
hERG current; [4]
  Annotation (hERG Active / Inactive): Inactive

## C[C@@H](O)[C@H]1C(=O)N2C(C(=O)O)=C(S[C@@H]3CN[C@H](C(=O)N(C)C)C3)[C@H](C)[C@H]12 [meropenem]
hERG current; [5]
  Annotation (hERG Active / Inactive): Inactive

## CN1CCN(C(c2ccccc2)c2ccc(Cl)cc2)CC1 (stereo not shown) [chlorcyclizine]
hERG current; [4]
  Annotation (hERG Active / Inactive): Active

## COC1=C[C@@H]2C3=C([C@@H]2C1=O)[C@@H](NC(C)=O)CCc1cc(OC)c(OC)c(OC)c13 [lumicolchicine]
hERG current; [5]
  Annotation (hERG Active / Inactive): Inactive

## CC(CCc1ccccc1)NCC(O)c1ccc(O)c(C(N)=O)c1 (stereo not shown) [labetalol]
hERG current; [5]
  Annotation (hERG Active / Inactive): Inactive

## COc1cc2c(c(OC)c1OC)-c1ccc(OC)c(=O)cc1[C@@H](NC(C)=O)CC2 [colchicine]
hERG current; [4]
  Annotation (hERG Active / Inactive): Inactive

## CN(C)CC/C=C1/c2ccccc2Sc2ccc(Cl)cc21 [chlorprothixene]
hERG current; [4]
  Annotation (hERG Active / Inactive): Active

## mometasone
hERG current; [5]
  Annotation (hERG Active / Inactive): Inactive

## COc1cc2c(cc1O)[C@@H]1Cc3ccc(OC)c(O)c3CN1CC2 [scoulerine]
hERG current
  Annotation (hERG inhibition class, Active/Inactive by IC50): Inactive

## CN(C)CCOC(=O)C(c1ccccc1)C1(O)CCCC1 (stereo not shown) [cyclopentolate]
hERG current; [4]
  Annotation (hERG Active / Inactive): Inactive

## CN1C[C@H](CNC(=O)OCc2ccccc2)C[C@@H]2c3cccc4c3c(cn4C)C[C@H]21 [metergoline]
hERG current; [5]
  Annotation (hERG Active / Inactive): Active

## C[C@]12CC[C@H](O)C[C@H]1CC[C@@H]1[C@@H]2C[C@@H](O)[C@]2(C)[C@@H](C3=CC(=O)OC3)CC[C@]12O [digoxigenin]
hERG current; [4]
  Annotation (hERG Active / Inactive): Inactive

## diethylstilbestrol
hERG current
  Annotation (hERG Active / Inactive): Inactive

## hydrocortisone
hERG current; [5]
  Annotation (hERG Active / Inactive): Inactive

## OC(c1ccccc1)(c1ccccc1)C1CCNCC1 [azacyclonol]
hERG current
  Annotation (hERG Active / Inactive): Inactive

## rifabutin
hERG current
  Annotation (hERG inhibition class, Active/Inactive by IC50): Inactive

## C[C@@H]1O[C@@H](O[C@H]2C[C@@H](O)[C@]3(CO)[C@H]4[C@H](O)C[C@]5(C)[C@@H](C6=CC(=O)OC6)CC[C@]5(O)[C@@H]4CC[C@]3(O)C2)[C@H](O)[C@H](O)[C@H]1O [ouabain]
hERG current
  Annotation (hERG Active / Inactive): Inactive
